Results: ChEMBL document CHEMBL1127844, “Molecular structures and conformational studies of triarylcyclopropyl and related nonsteroidal antiestrogens” (J Med Chem, 1994)

Tested on: MCF7
Experiment: Percent inhibition of estrogen receptor positive MCF-7 human breast cancer cell proliferation at 10e-7 M
Format: functional

| SMILES | inhibition at 0.1 µM [%] |
| --- | --- |
| CN(C)CCOc1ccc(C2(c3ccccc3)C(c3ccccc3)C2(Cl)Cl)cc1 (configuration not stated) | 41 |
| COc1ccc(C2C(Cl)(Cl)C2(c2ccc(OC)cc2)c2ccc(OCc3ccccc3)cc2)cc1 (configuration not stated) | 35 |
| CC/C(=C(\c1ccccc1)c1ccc(OCCN(C)C)cc1)c1ccccc1 [TAMOXIFEN] | 52 |
| COc1ccc(C2(c3ccc(OCCN(C)C)cc3)C(c3ccccc3)C2(Cl)Cl)cc1 (configuration not stated) | 35 |
| COc1ccc(C2(c3ccc(OCc4ccccc4)cc3)C(c3ccccc3)C2(Cl)Cl)cc1 (configuration not stated) | 46 |
| COc1ccc(C2(c3ccccc3)C(c3ccccc3)C2(Cl)Cl)cc1 (configuration not stated) | 35 |
| ClC1(Cl)C(c2ccccc2)C1c1ccccc1 (configuration not stated) | 60 |
